One data set deals with wild buckwheat (POLCO). Nature of the data set: Test 22 growth chamber, postemergence. It is filed as in vivo, Polygonum convolvulus. The following applies: 25 DAA. The method, then: (§1) A test was conducted to evaluate the effects on winter barley (HORVW, Hordeum vulgare L.), winter wheat (TRZAW, Triticum aestivum L.), and several weed species of mixtures of Compound 2 with the commercial herbicides (2,4-dichlorophenoxy)acetic acid (2,4-D) and (4-chloro-2-methylphenoxy)acetic acid (MCPA), auxin mimics. […] Plants were treated postemergence at the 2-4 leaf growth stage, except KCHSC, SASKR and STEME which were in the 4-8 leaf growth stage. Each treatment was replicated one time. […] Plants were watered as needed. […] Results are from single replicates.

A further data set relates to redroot pigweed (AMARE). The data set can be described thus: Test 22 growth chamber, postemergence. The following applies: 25 DAA. It counts as in vivo, Amaranthus retroflexus. The method, then:
as §1

Another data set deals with winter barley (HORVW). Nature of the data set: Test 23 growth chamber, postemergence. It counts as in vivo, Hordeum vulgare. The following applies: 21 DAA. Here is the method: A test was conducted to evaluate the effects on winter barley (HORVW, Hordeum vulgare L.), winter wheat (TRZAW, Triticum aestivum L.), and several weed species of mixtures of Compound 2 with the commercial herbicides (2,4-dichlorophenoxy)acetic acid (2,4-D) and (4-chloro-2-methylphenoxy)acetic acid (MCPA), auxin mimics. […] Plants were treated postemergence at the 2-4 leaf growth stage, and each treatment was replicated three times. […] Plants were watered as needed. […] Results are means of the three replicates.

A further data set relates to corn (ZEAMD). Nature of the data set: Test 2 field trial, preemergence. It is filed as in vivo, Zea mays ssp. indentata. An excerpt:
Corn seeds (hybrid ‘Pioneer 31G96’) were planted in mid spring season, 3.8 cm deep in a clay loam soil having 2% organic matter and a pH of 6.6. Plots were 6.1 m long by 3.0 m wide with rows spaced 76 cm apart. Seeds were spaced 15 cm apart within the rows. The field was managed using conventional tillage practices. […] A few of the weed species could not be evaluated at every timing. […] Results are the means of the three replicates.

The next data set relates to flint corn (ZEAMI). Nature of the data set: Test 12 field trial, preemergence. It counts as in vivo, Zea mays L. ssp. indurata. The settings on record: Cpd 2 or Cpd 1 62 g a.i./ha, Diuron 2000 g a.i./ha. The text has this:
In early-mid spring season, corn seeds (hybrid ‘Pioneer 3041’) were planted 5 cm deep and sugarcane nodes (variety RB-72.454) were planted 10 cm deep in separate plots in a clay soil having 2.6% organic matter and a pH of 5.6. Plots were 24 m long by 1.5 m wide with rows spaced 80 cm (corn) or 140 cm (sugarcane) apart. Corn seeds were spaced 15 cm apart and sugarcane nodes were spaced 10 cm apart within the rows. At the same time, weed seeds were broadcast over the surface of separate plots without a crop, one weed species per plot. The weed plots were rotary tilled to incorporate the weed seeds to a variety of depths. The field was managed using conventional tillage practices.

The test system of another data set is barley (HORVX). Nature of the data set: Test 30 growth chamber, postemergence. It is filed as in vivo, Hordeum vulgare. Here is the method:
A growth chamber test was conducted to evaluate the effects on the plant species wheat (TRZAW, Triticum aestivum L.) and barley (HORVX, Hordeum vulgare L.) with mixtures of Compound 1 and Compound 2 with glycerol. Wheat and barley seeds were planted in a sandy loam soil having 0.9% organic matter and a pH of 6.3. […] Wheat and barley plants were treated postemergence at the two leaf growth stage for Compound 1 and at the three leaf growth stage for Compound 2. Each treatment was replicated one time. […] Plants were watered as needed. […] Colby's Equation was used to determine herbicidal effects expected from the mixtures.

Another data set deals with giant foxtail (SETFA). The data set can be described thus: Test 14 field trial, preemergence, growth as percent of control. It is filed as in vivo, Setaria faberi. An excerpt: (§2) Corn seeds (hybrid ‘Pioneer 31G96 RR’) were planted in mid spring season, 3.8 cm deep in a clay loam soil having 2% organic matter and a pH of 6.6. Plots were 6.1 m long by 3.0 m wide with rows spaced 76 cm apart. Seeds were spaced 15 cm apart within the rows. The field was managed using conventional tillage practices. […] Yellow nutsedge was only evaluated 19 and 28 days after application, and ivyleaf morningglory could only be evaluated 28 days after application. […] Results are the means of the three replicates. This growth inhibition data was converted to results in the form of “plant growth as a percent of control plant growth” using the calculation “100 minus growth inhibition”. […] For “growth as a percent of control” data, Colby's Equation calculates the expected additive effect of herbicidal mixtures having two active ingredients as follows:
(§3) Ga+b=GaGb/100 • wherein Ga+b is the growth as a percent of control of plants treated with the mixture expected from additive contribution of the individual components, • Ga is the observed growth as a percent of control of plants treated with the first active ingredient at the same use rate as in the mixture, and • Gb is the observed growth as a percent of control of plants treated with the second active ingredient at the same use rate as in the mixture. For mixtures having three active ingredients, Colby's Equation to calculate the expected additive effect of herbicidal mixtures is as follows:
(§4) Ga+b+c=GaGbGc/10,000 • wherein Ga and Gb are as defined above and • Ga+b+c is the growth as a percent of control of plants treated with the mixture expected from additive contribution of the individual components, and • Gc is the observed growth as a percent of control of plants treated with the third active ingredient at the same use rate as in the mixture. When these two forms of Colby's Equation are used, if the observed effects on weeds are less than the expected values, the mixture is synergistic.

Another data set concerns giant ragweed (AMBTR). Described as above. It counts as in vivo, Ambrosia trifida.
Excerpt: as §2, §3, §4

Setting [1] is: 2,4-D or MCPA alone 250 g a.i./ha.

As for `O=C(O)COc1ccc(Cl)cc1Cl` [2,4-D, (2,4-dichlorophenoxy)acetic acid], the “Postemergence POLCO Obs” value with wild buckwheat (POLCO) (setting [1]) came to 45. For the same compound, the “Postemergence AMARE Obs” value in the data set on redroot pigweed (AMARE) (setting [1]) came to 70. For the same compound, the “Postemergence HORVW Obs” value in the data set on winter barley (HORVW) (setting [1]) is reported as 25.
In the case of `CCNc1nc(Cl)nc(NC(C)C)n1` [Atrazine, atrazine, reference compound], the “ZEAMD Obs” value amounted to 8 with corn (ZEAMD) (18 DAA, g a.i./ha: Cpd 2 25, Atrazine 250); 5 with corn (ZEAMD) (18 DAA, g a.i./ha: Cpd 2 50, Atrazine 500); 15 in the data set on corn (ZEAMD) (18 DAA, g a.i./ha: Cpd 2 75, Atrazine 750); 7 in the data set on corn (ZEAMD) (18 DAA, g a.i./ha: Cpd 2 100, Atrazine 1000); 5 with corn (ZEAMD) (18 DAA, g a.i./ha: Cpd 2 150, Atrazine 1500); 2 in the data set on corn (ZEAMD) (28 DAA, g a.i./ha: Cpd 2 25, Atrazine 250). Moreover, the “ZEAMD Obs” value in the data set with corn (ZEAMD) (28 DAA, g a.i./ha: Cpd 2 50, Atrazine 500) amounted to 7; in the data set with corn (ZEAMD) (28 DAA, g a.i./ha: Cpd 2 75, Atrazine 750) it was 12; in the data set with corn (ZEAMD) (28 DAA, g a.i./ha: Cpd 2 100, Atrazine 1000), 8; in the data set on corn (ZEAMD) (28 DAA, g a.i./ha: Cpd 2 150, Atrazine 1500) it was 3; with corn (ZEAMD) (55 DAA, g a.i./ha: Cpd 2 25, Atrazine 250), 0; in the data set with corn (ZEAMD) (55 DAA, g a.i./ha: Cpd 2 50, Atrazine 500), 0. Also, the “ZEAMD Obs” value in the data set on corn (ZEAMD) (55 DAA, g a.i./ha: Cpd 2 75, Atrazine 750) was 0; with corn (ZEAMD) (55 DAA, g a.i./ha: Cpd 2 100, Atrazine 1000), 0; in the data set with corn (ZEAMD) (55 DAA, g a.i./ha: Cpd 2 150, Atrazine 1500) it was 0.
As for `Nc1nc(C2CC2)nc(C(=O)O)c1Cl` [Compound 1, 6-amino-5-chloro-2-cyclopropyl-4-pyrimidinecarboxylic acid], the ZEAMI Obs worked out at 0% in the data set with flint corn (ZEAMI) (15 DAA), 10% with flint corn (ZEAMI) (29 DAA), 20% in the data set on flint corn (ZEAMI) (48 DAA) and 15% in the data set with flint corn (ZEAMI) (61 DAA). Also, the HORVX Obs in the data set with barley (HORVX) (18 DAA, Cpd 1 1 g a.i./ha) worked out at 0%; in the data set on barley (HORVX) (18 DAA, Cpd 1 4 g a.i./ha) it was 20%; in the data set on barley (HORVX) (18 DAA, Cpd 1 16 g a.i./ha), 40%.
With `COC(=O)c1nc(C2CC2)nc(N)c1Cl` [Compound 2, methyl 6-amino-5-chloro-2-cyclopropyl-4-pyrimidinecarboxylate], the “ZEAMD Obs” value in the data set on corn (ZEAMD) (hybrid Pioneer 31G96, corn (Zea mays ssp. indentata), in vivo, 55 days after application) is given as 0. Besides, the “Postemergence POLCO Obs” value in the data set on wild buckwheat (POLCO) (Cpd 2 alone 4 g a.i./ha) stood at 55; in the data set with wild buckwheat (POLCO) (Cpd 2 alone 8 g a.i./ha) it was 60; in the data set on wild buckwheat (POLCO) (Cpd 2 alone 16 g a.i./ha), 60. Further, the ZEAMI Obs came to 15% in the data set on flint corn (ZEAMI) (15 DAA), 10% in the data set with flint corn (ZEAMI) (29 DAA), 0% in the data set on flint corn (ZEAMI) (48 DAA) and 15% in the data set on flint corn (ZEAMI) (61 DAA). Also, the “Obs growth % of control” value in the data set on giant foxtail (SETFA) (19 DAA, 75 g a.i./ha) was determined as 58%; with giant foxtail (SETFA) (19 DAA, 100 g a.i./ha) it was 48%; with giant foxtail (SETFA) (28 DAA, 75 g a.i./ha), 68%; in the data set on giant foxtail (SETFA) (28 DAA, 100 g a.i./ha), 67%; in the data set on giant foxtail (SETFA) (56 DAA, 75 g a.i./ha), 92%; with giant foxtail (SETFA) (56 DAA, 100 g a.i./ha), 97%. Moreover, the “Obs growth % of control” value turned out to be 65% in the data set with giant ragweed (AMBTR) (19 DAA, 75 g a.i./ha); 73% in the data set on giant ragweed (AMBTR) (19 DAA, 100 g a.i./ha); 100% in the data set with giant ragweed (AMBTR) (28 DAA, 75 g a.i./ha); 23% in the data set with giant ragweed (AMBTR) (28 DAA, 100 g a.i./ha); 20% in the data set on giant ragweed (AMBTR) (56 DAA, 75 g a.i./ha); 18% with giant ragweed (AMBTR) (56 DAA, 100 g a.i./ha). Besides, the “Postemergence AMARE Obs” value stood at 55 in the data set with redroot pigweed (AMARE) (Cpd 2 alone 4 g a.i./ha), 65 in the data set on redroot pigweed (AMARE) (Cpd 2 alone 8 g a.i./ha) and 65 in the data set on redroot pigweed (AMARE) (Cpd 2 alone 16 g a.i./ha). The “Postemergence HORVW Obs” value was 32 with winter barley (HORVW) (Cpd 2 alone 4 g a.i./ha), 38 in the data set on winter barley (HORVW) (Cpd 2 alone 8 g a.i./ha) and 38 in the data set on winter barley (HORVW) (Cpd 2 alone 16 g a.i./ha). The HORVX Obs with barley (HORVX) (17 DAA, Cpd 2 1 g a.i./ha) is 25%; with barley (HORVX) (17 DAA, Cpd 2 4 g a.i./ha), 30%; in the data set with barley (HORVX) (17 DAA, Cpd 2 16 g a.i./ha) it was 35%.
In the case of `CCc1cccc(C)c1N(C(=O)CCl)[C@@H](C)COC` [S-Metolachlor, S-metolachlor, reference compound], the “Obs growth % of control” value with giant foxtail (SETFA) (19 DAA, 1870 g a.i./ha) came to 7%; in the data set with giant foxtail (SETFA) (28 DAA, 1870 g a.i./ha), 5%; with giant foxtail (SETFA) (56 DAA, 1870 g a.i./ha) it was 1%; in the data set on giant ragweed (AMBTR) (19 DAA, 1870 g a.i./ha) it was 83%; in the data set with giant ragweed (AMBTR) (28 DAA, 1870 g a.i./ha) it was 88%; in the data set with giant ragweed (AMBTR) (56 DAA, 1870 g a.i./ha), 100%.

The values above are taken from US20100285959A1, “HERBICIDAL MIXTURES” (priority 2006, published 2010).
